Assay results as given in patent publication US11718628B2, “SREBP inhibitors comprising a 6-membered central ring” (Capulus Therapeutics, LLC, priority 2018, dated 2023).

Assays:
HepG2 cells = assay: Gene expression of HepG2 cells (quantitative PCR); assay type: cell-based; set-up: key to LSS gene expression / MVK gene expression / SREBP1 gene expression / SREBP2 gene expression / SCAP gene expression / SCD gene expression / MVD gene expression / ACACA gene expression / ACACB gene expression / ACLY gene expression / ACSS1 gene expression / ACSS2 gene expression / ELOVL6 gene expression / FASN gene expression / HMGCR gene expression: relative expression vs mock/vehicle (ΔΔCT, β-actin normalized); settings: 500 nM, 48 hrs
Description: Gene Expression: The effect of selected compounds described herein on the gene expression of HepG2 cells was evaluated. HepG2 cells (P2) were seeded in 24 well plate (80,000 cells/well) for RNA extraction and in a 96 well plate (10,000 cells/well) for Cell Titer Glow (CTG). The media used was DMEM and contained 10% FBS. Each compound was evaluated at […] for 48 hours. Two biological replicates per experimental group were evaluated for RNA. For gene analysis, RNA was harvested with RNEasy kit and 20-100 ng used to synthesize cDNA with random primers. Quantitative PCR was performed on 1 pg to 100 ng cDNA for the following genes: ACACA, ACLY, FASN, LSS, PNPLA3. Gene expression levels were normalized with housekeeping gene, β-Actin, and relative expression levels determined using ΔΔCT method comparing treated to mock or vehicle treated cells as a baseline. “Total” gene expression refers to the average of the values of the 5 genes listed above.
The effect of Compound Z-725 on expression of the genes ACACA, ACACB, ACLY, ACSS1, ACSS2, ELOVL6, FASN, HMGCR, LSS, MVK, PNPLA3, SREBP1, SREBP2, SCAP, SCD, and MVD was evaluated, following the procedure described in Example 52.

[1] = Plasma and liver compound levels in mice after oral administration; assay type: in vivo
Method in brief: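 Mice were dosed orally by gavage with compound in 0.5% methylcellulose (5% N-methyl pyrrolidone added when needed). Retro-orbital plasma and unperfused liver collected at 6 h or 24 h and stored at −80 °C for bioanalysis.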

Liver ng/mg (6 h) ([1]; 10 mpk): 100 to 1000 ng/mg
Plasma ng/mL (6 h) ([1]; 10 mpk): <100 ng/mL
Liver ng/mg 24 h ([1]; 10 mpk): 100 to 1000 ng/mg
Plasma ng/mL (24 h) ([1]; 10 mpk): <100 ng/mL
Liver ng/mg (6 h) ([1]; 30 mpk): 100 to 1000 ng/mg
Plasma ng/mL (6 h) ([1]; 30 mpk): 100 to 1000 ng/mL
Liver ng/mg 24 h ([1]; 30 mpk): <100 ng/mg
Plasma ng/mL (24 h) ([1]; 30 mpk): <100 ng/mL
SMILES: CC(C)(C)c1cc(-c2cncc(-c3ccc(C(=O)N4CCC(O)CC4)cc3Cl)c2)ccn1 [Compound Z-725]
ACACA gene expression (HepG2 cells): 0.4399
ACACB gene expression (HepG2 cells): 0.5472
ACLY gene expression (HepG2 cells): 0.3505
ACSS1 gene expression (HepG2 cells): 0.2838
ACSS2 gene expression (HepG2 cells): 0.4792
ELOVL6 gene expression (HepG2 cells): 0.4432
FASN gene expression (HepG2 cells): 0.2957
HMGCR gene expression (HepG2 cells): 0.09282
LSS gene expression (HepG2 cells): 0.2412
MVD gene expression (HepG2 cells): 0.1984
MVK gene expression (HepG2 cells): 0.05926
PNPLA3 gene expression (HepG2 cells): 0.09989
SCAP gene expression (HepG2 cells): 1.312
SCD gene expression (HepG2 cells): 0.2009
SREBP1 gene expression (HepG2 cells): 0.5489
SREBP2 gene expression (HepG2 cells): 0.786
